Data: ChEMBL document CHEMBL1148076, “Cucurbitacins: differential cytotoxicity, dereplication and first isolation from Gonystylus keithii” (1994)

Experiments:
Type in all cases: functional
CCRF-CEM = assay: Growth inhibition of human CCRF-CEM cells
HL-60(TB) = assay: Growth inhibition of human HL-60(TB) cells
K562 = assay: Growth inhibition of human K562 cells
MOLT-4 = assay: Growth inhibition of human MOLT4 cells
[1] = Growth inhibition of human […] cells
SR = assay: Growth inhibition of human SR cells
A549 = assay: Growth inhibition of human A549 cells
EKVX = assay: Growth inhibition of human EKVX cells
HOP-62 = assay: Growth inhibition of human HOP62 cells
HOP-92 = assay: Growth inhibition of human HOP92 cells
NCI-H226 = assay: Growth inhibition of human NCI-H226 cells
NCI-H23 = assay: Growth inhibition of human NCI-H23 cells
NCI-H322M = assay: Growth inhibition of human NCI-H322M cells
NCI-H460 = assay: Growth inhibition of human NCI-H460 cells
NCI-H522 = assay: Growth inhibition of human NCI-H522 cells
COLO 205 = assay: Growth inhibition of human COLO205 cells
HCC 2998 = assay: Growth inhibition of human HCC2998 cells
HCT-116 = assay: Growth inhibition of human HCT116 cells
HCT-15 = assay: Growth inhibition of human HCT15 cells
HT-29 = assay: Growth inhibition of human HT-29 cells
KM12 = assay: Growth inhibition of human KM12 cells
SW-620 = assay: Growth inhibition of human SW620 cells
SF-268 = assay: Growth inhibition of human SF268 cells
SF-295 = assay: Growth inhibition of human SF295 cells
SF-539 = assay: Growth inhibition of human SF539 cells
SNB-19 = assay: Growth inhibition of human SNB19 cells
SNB-75 = assay: Growth inhibition of human SNB75 cells
U-251 = assay: Growth inhibition of human U251 cells
LOX IMVI = assay: Growth inhibition of human LOXIMVI cells
Malme-3M = assay: Growth inhibition of human MALME-3M cells
M14 = assay: Growth inhibition of human M14 cells
SK-MEL-2 = assay: Growth inhibition of human SK-MEL-2 cells
SK-MEL-28 = assay: Growth inhibition of human SK-MEL-28 cells
SK-MEL-5 = assay: Growth inhibition of human SK-MEL-5 cells
UACC-257 = assay: Growth inhibition of human UACC257 cells
UACC-62 = assay: Growth inhibition of human UACC62 cells
IGROV-1 = assay: Growth inhibition of human IGROV1 cells
OVCAR-3 = assay: Growth inhibition of human OVCAR-3 cells
OVCAR-4 = assay: Growth inhibition of human OVCAR4 cells
OVCAR-5 = assay: Growth inhibition of human OVCAR5 cells
OVCAR-8 = assay: Growth inhibition of human OVCAR8 cells
SK-OV-3 = assay: Growth inhibition of human SKOV3 cells
786-0 = assay: Growth inhibition of human 786-0 cells
A498 = assay: Growth inhibition of human A498 cells
ACHN = assay: Growth inhibition of human ACHN cells
CAKI-1 = assay: Growth inhibition of human Caki1 cells
RXF 393 = assay: Growth inhibition of human RXF393 cells
SN12C = assay: Growth inhibition of human SN12C cells
TK-10 = assay: Growth inhibition of human TK10 cells
UO-31 = assay: Growth inhibition of human UO31 cells
PC-3 = assay: Growth inhibition of human PC3 cells
DU-145 = assay: Growth inhibition of human DU145 cells
MCF7 = assay: Growth inhibition of human MCF7 cells
NCI/ADR-RES = assay: Growth inhibition of human NCI/ADR-RES cells
MDA-MB-231 = assay: Growth inhibition of human MDA-MB-231 cells
[2] = Growth inhibition of human Hs 578T cells
MDA-MB-435 = assay: Growth inhibition of human MDA-MB-435 cells
MDA-N = assay: Growth inhibition of human MDA-N cells
BT-549 = assay: Growth inhibition of human BT549 cells
T47D = assay: Growth inhibition of human T47D cells
[3] = read-out: pLC50 (the source's name) (converted)

CC(=O)OC(C)(C)/C=C/C(=O)[C@](C)(O)[C@H]1[C@H](O)C[C@@]2(C)[C@@H]3CC=C4[C@@H](C=C(O)C(=O)C4(C)C)[C@]3(C)C(=O)C[C@]12C [CUCURBITACIN E]
CC50 (CCRF-CEM; [3]): 34700 nM | TGI (CCRF-CEM; read-out: pTGI (converted)): 6310 nM | CC50 (HL-60(TB); [3]): 34700 nM | TGI (HL-60(TB); read-out: pTGI (converted)): 6610 nM | CC50 (K562; [3]): 32400 nM | TGI (K562; read-out: pTGI (converted)): 15100 nM | CC50 (MOLT-4; [3]): 34700 nM | TGI (MOLT-4; read-out: pTGI (converted)): 15100 nM | CC50 [1, 3]: 34700 nM | TGI ([1]; read-out: pTGI (converted)): 8130 nM | CC50 (SR; [3]): 34700 nM | TGI (SR; read-out: pTGI (converted)): 14100 nM | CC50 (A549; [3]): 33900 nM | TGI (A549; read-out: pTGI (converted)): 5010 nM | CC50 (EKVX; [3]): 15800 nM | TGI (EKVX; read-out: pTGI (converted)): 1100 nM | CC50 (HOP-62; [3]): 6920 nM | TGI (HOP-62; read-out: pTGI (converted)): 309 nM | CC50 (HOP-92; [3]): 191 nM | TGI (HOP-92; read-out: pTGI (converted)): 63.1 nM | CC50 (NCI-H226; [3]): 9770 nM | TGI (NCI-H226; read-out: pTGI (converted)): 91.2 nM | CC50 (NCI-H23; [3]): 10000 nM | TGI (NCI-H23; read-out: pTGI (converted)): 2190 nM | CC50 (NCI-H322M; [3]): 12000 nM | TGI (NCI-H322M; read-out: pTGI (converted)): 3020 nM | CC50 (NCI-H460; [3]): 19100 nM | TGI (NCI-H460; read-out: pTGI (converted)): 2190 nM | CC50 (NCI-H522; [3]): 3310 nM | TGI (NCI-H522; read-out: pTGI (converted)): 81.3 nM | CC50 (COLO 205; [3]): 17000 nM | TGI (COLO 205; read-out: pTGI (converted)): 5750 nM | CC50 (HCC 2998; [3]): 10000 nM | TGI (HCC 2998; read-out: pTGI (converted)): 912 nM | CC50 (HCT-116; [3]): 1820 nM | TGI (HCT-116; read-out: pTGI (converted)): 372 nM | CC50 (HCT-15; [3]): 11000 nM | TGI (HCT-15; read-out: pTGI (converted)): 537 nM | CC50 (HT-29; [3]): 10000 nM | TGI (HT-29; read-out: pTGI (converted)): 1820 nM | CC50 (KM12; [3]): 15100 nM | TGI (KM12; read-out: pTGI (converted)): 4790 nM | CC50 (SW-620; [3]): 19100 nM | TGI (SW-620; read-out: pTGI (converted)): 2090 nM | CC50 (SF-268; [3]): 12900 nM | TGI (SF-268; read-out: pTGI (converted)): 100 nM | CC50 (SF-295; [3]): 5620 nM | TGI (SF-295; read-out: pTGI (converted)): 81.3 nM | CC50 (SF-539; [3]): 331 nM | TGI (SF-539; read-out: pTGI (converted)): 18.2 nM | CC50 (SNB-19; [3]): 1510 nM | TGI (SNB-19; read-out: pTGI (converted)): 209 nM | CC50 (SNB-75; [3]): 17000 nM | TGI (SNB-75; read-out: pTGI (converted)): 603 nM | CC50 (U-251; [3]): 3470 nM | TGI (U-251; read-out: pTGI (converted)): 646 nM | CC50 (LOX IMVI; [3]): 53.7 nM | TGI (LOX IMVI; read-out: pTGI (converted)): 19.1 nM | CC50 (Malme-3M; [3]): 4370 nM | TGI (Malme-3M; read-out: pTGI (converted)): 79.4 nM | CC50 (M14; [3]): 6760 nM | TGI (M14; read-out: pTGI (converted)): 646 nM | CC50 (SK-MEL-2; [3]): 417 nM | TGI (SK-MEL-2; read-out: pTGI (converted)): 25.7 nM | CC50 (SK-MEL-28; [3]): 4170 nM | TGI (SK-MEL-28; read-out: pTGI (converted)): 77.6 nM | CC50 (SK-MEL-5; [3]): 759 nM | TGI (SK-MEL-5; read-out: pTGI (converted)): 120 nM | CC50 (UACC-257; [3]): 11000 nM | TGI (UACC-257; read-out: pTGI (converted)): 1200 nM | CC50 (UACC-62; [3]): 1910 nM | TGI (UACC-62; read-out: pTGI (converted)): 347 nM | CC50 (IGROV-1; [3]): 3890 nM | TGI (IGROV-1; read-out: pTGI (converted)): 19.9 nM | CC50 (OVCAR-3; [3]): 3720 nM | TGI (OVCAR-3; read-out: pTGI (converted)): 83.2 nM | CC50 (OVCAR-4; [3]): 10000 nM | TGI (OVCAR-4; read-out: pTGI (converted)): 417 nM | CC50 (OVCAR-5; [3]): 18200 nM | TGI (OVCAR-5; read-out: pTGI): 5250 nM | CC50 (OVCAR-8; [3]): 15100 nM | TGI (OVCAR-8; read-out: pTGI (converted)): 2290 nM | CC50 (SK-OV-3; [3]): 12000 nM | TGI (SK-OV-3; read-out: pTGI (converted)): 550 nM | CC50 (786-0; [3]): 4070 nM | TGI (786-0; read-out: pTGI (converted)): 129 nM | CC50 (A498; [3]): 63.1 nM | TGI (A498; read-out: pTGI (converted)): 25.7 nM | CC50 (ACHN; [3]): 2510 nM | TGI (ACHN; read-out: pTGI (converted)): 141 nM | CC50 (CAKI-1; [3]): 79.4 nM | TGI (CAKI-1; read-out: pTGI (converted)): 20.9 nM | CC50 (RXF 393; [3]): 347 nM | TGI (RXF 393; read-out: pTGI (converted)): 49 nM | CC50 (SN12C; [3]): 12900 nM | TGI (SN12C; read-out: pTGI (converted)): 1410 nM | CC50 (TK-10; [3]): 3310 nM | TGI (TK-10; read-out: pTGI (converted)): 129 nM | CC50 (UO-31; [3]): 2290 nM | TGI (UO-31; read-out: pTGI (converted)): 77.6 nM | CC50 (PC-3; [3]): 6760 nM | TGI (PC-3; read-out: pTGI (converted)): 257 nM | CC50 (DU-145; [3]): 12900 nM | TGI (DU-145; read-out: pTGI (converted)): 2090 nM | CC50 (MCF7; [3]): 8910 nM | TGI (MCF7; read-out: pTGI (converted)): 3240 nM | CC50 (NCI/ADR-RES; [3]): 33900 nM | TGI (NCI/ADR-RES; read-out: pTGI (converted)): 8130 nM | CC50 (MDA-MB-231; [3]): 891 nM | TGI (MDA-MB-231; read-out: pTGI (converted)): 53.7 nM | CC50 [2, 3]: 34700 nM | TGI ([2]; read-out: pTGI (converted)): 89.1 nM | CC50 (MDA-MB-435; [3]): 22900 nM | TGI (MDA-MB-435; read-out: pTGI (converted)): 2090 nM | CC50 (MDA-N; [3]): 14100 nM | TGI (MDA-N; read-out: pTGI (converted)): 1910 nM | CC50 (BT-549; [3]): 151 nM | TGI (BT-549; read-out: pTGI (converted)): 12.9 nM | CC50 (T47D; [3]): 12900 nM | TGI (T47D; read-out: pTGI (converted)): 2000 nM
